Results: ChEMBL document CHEMBL4130506, “Design, synthesis and biological evaluation of N-(4-alkoxy-3-cyanophenyl)isonicotinamide/nicotinamide derivatives as novel xanthine oxidase inhibitors” (Eur J Med Chem, 2017)

Biological target: T1, Xanthine dehydrogenase/oxidase (Bos taurus, UniProt P80457)
Test: Inhibition of bovine xanthine oxidase assessed as reduction in uric acid formation using xanthine as substrate preincubated for 10 mins followed by substrate addition by UV spectrophotometric method
Details: not given; call rule not given here

T1 sequence (P80457 whole entry): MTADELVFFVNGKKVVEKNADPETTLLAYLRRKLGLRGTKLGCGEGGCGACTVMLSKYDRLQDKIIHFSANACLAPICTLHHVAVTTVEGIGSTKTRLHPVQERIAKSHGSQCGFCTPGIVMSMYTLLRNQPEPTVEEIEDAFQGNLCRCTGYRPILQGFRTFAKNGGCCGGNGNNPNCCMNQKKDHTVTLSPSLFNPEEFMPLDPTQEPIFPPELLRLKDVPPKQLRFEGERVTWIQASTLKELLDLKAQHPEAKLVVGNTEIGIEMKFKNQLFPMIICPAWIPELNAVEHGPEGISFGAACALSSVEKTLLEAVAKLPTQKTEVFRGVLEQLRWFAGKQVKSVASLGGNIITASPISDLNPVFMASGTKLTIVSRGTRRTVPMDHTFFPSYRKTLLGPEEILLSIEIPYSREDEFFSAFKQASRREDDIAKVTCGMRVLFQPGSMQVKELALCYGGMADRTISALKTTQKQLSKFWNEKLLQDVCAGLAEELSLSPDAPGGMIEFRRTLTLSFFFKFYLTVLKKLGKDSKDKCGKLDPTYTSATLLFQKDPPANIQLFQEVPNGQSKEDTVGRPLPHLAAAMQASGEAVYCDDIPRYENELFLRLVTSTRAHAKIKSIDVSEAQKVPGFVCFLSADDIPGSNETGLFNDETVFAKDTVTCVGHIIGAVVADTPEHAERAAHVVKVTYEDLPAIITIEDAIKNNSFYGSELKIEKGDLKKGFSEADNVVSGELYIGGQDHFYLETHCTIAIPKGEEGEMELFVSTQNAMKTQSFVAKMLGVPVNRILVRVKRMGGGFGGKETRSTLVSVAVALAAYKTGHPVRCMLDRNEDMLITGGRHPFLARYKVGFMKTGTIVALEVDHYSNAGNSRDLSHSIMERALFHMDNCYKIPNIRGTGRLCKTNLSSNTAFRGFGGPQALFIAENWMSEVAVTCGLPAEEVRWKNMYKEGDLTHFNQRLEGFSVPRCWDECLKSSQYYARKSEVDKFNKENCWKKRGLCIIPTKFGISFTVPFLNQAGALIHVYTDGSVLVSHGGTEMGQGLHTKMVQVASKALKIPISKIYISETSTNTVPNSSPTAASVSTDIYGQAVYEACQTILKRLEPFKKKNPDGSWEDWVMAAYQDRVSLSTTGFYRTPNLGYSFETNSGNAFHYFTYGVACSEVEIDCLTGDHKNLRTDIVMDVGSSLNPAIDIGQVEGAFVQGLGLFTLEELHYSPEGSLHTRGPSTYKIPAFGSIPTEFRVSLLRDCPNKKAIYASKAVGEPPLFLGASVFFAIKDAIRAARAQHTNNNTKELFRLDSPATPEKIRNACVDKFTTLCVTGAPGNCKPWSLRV

Row | Structure (SMILES) | IC50 [nM]
1 | N#Cc1ccc(COc2ccc(NC(=O)c3ccncc3)cc2C#N)cc1 | 2300
2 | CCCCCCCOc1ccc(NC(=O)c2ccncc2)cc1C#N | 5000
3 | N#Cc1ccccc1COc1ccc(NC(=O)c2ccncc2)cc1C#N | 300
4 | N#Cc1cc(NC(=O)c2ccncc2)ccc1OC1CCCC1 | 5700
5 | CCC(C)Oc1ccc(NC(=O)c2ccncc2)cc1C#N (centres undefined) | 6100
6 | COc1ccccc1COc1ccc(NC(=O)c2ccncc2)cc1C#N | 1800
7 | N#Cc1cc(NC(=O)c2ccncc2)ccc1OCc1ccccc1 | 900
8 | CCCCCCOc1ccc(NC(=O)c2ccncc2)cc1C#N | 2700
9 | CC(C)CCOc1ccc(NC(=O)c2ccncc2)cc1C#N | 2000
10 | N#Cc1cccc(COc2ccc(NC(=O)c3ccncc3)cc2C#N)c1 | 2000
11 | CCCCOc1ccc(NC(=O)c2ccncc2)cc1C#N | 2300
12 | N#Cc1cc(NC(=O)c2ccccn2)ccc1OCc1ccccc1 | 22600
13 | CCCCCCCCOc1ccc(NC(=O)c2ccncc2)cc1C#N | 19200
14 | COc1ccc(COc2ccc(NC(=O)c3ccncc3)cc2C#N)cc1 | 600
15 | N#Cc1cc(NC(=O)c2ccncc2)ccc1OCc1ccc(Cl)cc1 | 800
16 | CCCCCOc1ccc(NC(=O)c2ccncc2)cc1C#N | 3000
17 | CC(C)Oc1ccc(NC(=O)c2ccncc2)cc1C#N | 9500
18 | CC(C)COc1ccc(NC(=O)c2ccncc2)cc1C#N | 1600
19 | N#Cc1cc(-c2n[nH]c(-c3ccncc3)n2)ccn1 [TOPIROXOSTAT] | 15

Continued, values first:

Row | IC50 [nM] | Structure (SMILES)
20 | 35000 | CC(C)CCOc1ccc(NC(=O)c2cccnc2)cc1C#N
21 | 32800 | N#Cc1cc(NC(=O)c2cccnc2)ccc1OCc1ccccc1
22 | 3900 | CCCOc1ccc(NC(=O)c2ccncc2)cc1C#N

Biological target: T1, Xanthine dehydrogenase/oxidase
Test: Mixed inhibition of bovine xanthine oxidase assessed as reduction in uric acid formation up to 0.6 uM using xanthine as substrate preincubated for 10 mins followed by substrate addition by Lineweaver-Burk plot analysis
Details: cattle

Row | inhibition (INH) | Structure (SMILES)
23 | Active | N#Cc1ccccc1COc1ccc(NC(=O)c2ccncc2)cc1C#N

Biological target: T1, Xanthine dehydrogenase/oxidase
Test: Potency index, ratio of allopurinol IC50 to test compound IC50 for bovine xanthine oxidase
Details: cattle

Row | Structure (SMILES) | Ratio IC50
24 | N#Cc1ccccc1COc1ccc(NC(=O)c2ccncc2)cc1C#N | 28.3
25 | CC(C)COc1ccc(NC(=O)c2ccncc2)cc1C#N | 5.3

Biological target: T1, Xanthine dehydrogenase/oxidase
Test: Inhibition of bovine xanthine oxidase assessed as reduction in uric acid formation at 50 uM using xanthine as substrate preincubated for 10 mins followed by substrate addition by UV spectrophotometric method
Details: cattle

Row | Structure (SMILES) | inhibition at 50 µM [%]
26 | N#Cc1cc(NC(=O)c2ccccc2)ccc1OCc1ccccc1 | < 60
27 | CCCCOc1ccc(NC(=O)c2ccccn2)cc1C#N | < 60
28 | N#Cc1cc(NC(=O)c2cccnc2)ccc1OCc1ccc(Cl)cc1 | < 60
29 | N#Cc1cc(NC(=O)c2cccnc2)ccc1OC1CCCC1 | < 60
30 | N#Cc1cc(NC(=O)c2ccccn2)ccc1OCc1ccc(Cl)cc1 | < 60
31 | CC(C)COc1ccc(NC(=O)c2ccccn2)cc1C#N | < 60
32 | N#Cc1ccc(COc2ccc(NC(=O)c3cccnc3)cc2C#N)cc1 | < 60
33 | CC(C)CCOc1ccc(NC(=O)c2ccccn2)cc1C#N | < 60

Now from value to molecule:

Row | inhibition at 50 µM [%] | Structure (SMILES)
34 | < 60 | CCCOc1ccc(NC(=O)c2cccnc2)cc1C#N
35 | < 60 | CC(C)Oc1ccc(NC(=O)c2cccnc2)cc1C#N
36 | < 60 | CCCCCOc1ccc(NC(=O)c2cccnc2)cc1C#N
37 | < 60 | CCCCCCCOc1ccc(NC(=O)c2cccnc2)cc1C#N
38 | < 60 | CCC(C)Oc1ccc(NC(=O)c2cccnc2)cc1C#N (centres undefined)
39 | < 60 | COCCOc1ccc(NC(=O)c2ccncc2)cc1C#N
40 | < 60 | CCCCOc1ccc(NC(=O)c2cccnc2)cc1C#N
41 | < 60 | CCCCCCCCOc1ccc(NC(=O)c2cccnc2)cc1C#N
42 | < 60 | CCCCCCOc1ccc(NC(=O)c2cccnc2)cc1C#N
43 | < 60 | COCCOc1ccc(NC(=O)c2cccnc2)cc1C#N
44 | < 60 | CC(C)COc1ccc(NC(=O)c2cccnc2)cc1C#N
